Data from patent US12377076B2, “Compounds for treating lymphoma or a T-cell malignant disease” (Purdue Pharma L.P., priority 2018, dated 2025).
Several values for one entry are separate records, joined by “and”; a condition that tells them apart may be missing. Equal values may be shown once. Entries after “also recorded” stand apart in the source; their conditions may differ.

Tests used:
Format in all cases: in vivo, human
[1] = system: patients with relapsed/refractory hematologic malignancies; test: Phase 1 dose escalation trial: safety, TEAEs, DLTs, MTD
Protocol: A phase 1 trial was carried out including a dose escalation study to investigate the safety, pharmacokinetic (PK) profiles and efficacy of tinostamustine (EDO-S101) in relapsed/refractory hematologic malignancies.
The patient had relapsed/refractory hematologic malignancies for which there are no available therapies.
The assessment of dose-limiting toxicities (DLTs) was based on cycle 1 events alone. Toxicities were assessed regarding type and severity using the National Cancer Institute (NCI) Common Terminology Criteria for Adverse Events (CTCAE) version 4.03, June 2010. Toxicity data were collected for all patients throughout their time on study. Infusion site reactions were assessed using the Phlebitis Scale developed by the Infusion Nurses Society (2011).
DLTs, which were at least possibly related to study drug, were defined as: • Any Grade 3 or 4 non-hematologic toxicity (excluding alopecia and easily correctable electrolyte abnormalities); • Nausea, vomiting or diarrhoea that persists beyond 10 days despite aggressive symptomatic treatment; • Grade 4 neutropenia or thrombocytopenia lasting for 7 days or more; • Any grade 2 or more toxicity, but persist for over 3 weeks; and • Any toxicity resulting in a delay of the next dose administration (cycle 2 day 1≥14).
To ensure patients' safety, the stopping rules were implemented to the dose escalation stage of the study.
Other safety assessments included physical examinations, Eastern Cooperative Oncology Group (ECOG) performance status determinations, electrocardiograms (ECGs), pregnancy testing for women of childbearing potential, documentation of treatment-emergent adverse events (TEAEs), clinical laboratory evaluations including haematology, blood chemistry and urinalysis, vital signs, and documentation of concomitant medication usage.
If there is no DLT observed in any of these subjects, the trial proceeds to enroll additional subjects into the next higher dose cohort. If one subject develops a DLT at a specific dose, an additional three subjects are enrolled into that same dose cohort.

patients with MM = test: Tumour assessment: response to treatment, patients with multiple myeloma; settings: 19 patients with MM
Text: (§1) Response to treatment included evaluation of overall response rate (patients with a CR plus patients with a PR), clinical benefit (CB) rate (patients with CR plus patients with PR plus patients with stable disease (SD)), progression free survival, and overall survival according to the relevant response criteria.

[2] = system: patients with relapsed/refractory hematologic malignancies; test: Tumour assessment: response to treatment, all HM; settings: all 46 patients
Text: as §1

[3] = all cohorts administered over 30 or 45 minutes
[4] = clinical chemistry TEAE, All Patients (N = 46)
[5] = clinical chemistry TEAE, all patients
[6] = doses of 20 to 80 mg/m^2, cohorts 20/60 to 120/60
[7] = doses of 100 or 120 mg/m^2, cohorts 20/60 to 120/60
[8] = patients with normal or grade 1 or 2 values at baseline

Cn1c(CCCCCCC(=O)NO)nc2cc(N(CCCl)CCCl)ccc21 [tinostamustine]
DLTs in cycle 1 ([1]; 100 mg/m^2 over 60 minutes): no dose-limiting toxicities | patients with Grade 3 and 4 thrombocytopenia in C2 and C3 leading to withdrawal ([1]; 100 mg/m^2 over 60 minutes): three | Grade 3 TEAE ([1]; Patients (N = 46)): 28 (60.8) | Grade 4 TEAE ([1]; Patients (N = 46)): 13 (28.2) | Infusion site phlebitis ([1]; Patients (N = 46)): 1 (2.1) | SAE ([1]; Patients (N = 46)): 8 (17.4) | TEAE leading to early study discontinuation ([1]; Patients (N = 46)): 11 (23.9) | TEAE with outcome of death ([1]; Patients (N = 46)): 0 (0) | TEAE ([1]; Patients (N = 46), number (percent)): 42 (91.3) | Treatment-related TEAE ([1]; Patients (N = 46), relationship possible, probable or definite): 38 (82.6) | incidence of leukopenia ([1]; administered over 30 or 45 minutes): 16% | incidence of leukopenia ([1]; administered over 60 minutes): 27% | incidence of thrombocytopenia ([1]; administered over 60 minutes): 58% | maximum tolerated dose (MTD) ([1]; administered over 60 minutes, subset of patients with MM (N=11)): 100 mg/m^2 | SAE dyspnea ([1]; all 46 patients): 2% | SAE febrile neutropenia ([1]; all 46 patients): 2% | SAE hypersensitivity ([1]; all 46 patients): 2% | SAE osteomyelitis ([1]; all 46 patients): 2% | SAE pleural effusion ([1]; all 46 patients): 2% | SAE pneumonia ([1]; all 46 patients): 2% | SAE sepsis ([1]; all 46 patients): 2% | TEAE with an outcome of death (grade 5 TEAE) ([1]; all 46 patients): No patient | anaphylactic reaction leading to study drug discontinuation ([1]; all 46 patients): 2% | blood and lymphatic system disorders ([1]; all 46 patients): 54% | discontinuation for adverse events (AE) ([1]; all 46 patients): 29% | febrile neutropenia leading to study drug discontinuation ([1]; all 46 patients): 2% | gastrointestinal (GI) disorders ([1]; all 46 patients): 52% | general disorders and administration site conditions ([1]; all 46 patients): 50% | grade 3/4 anemia ([1]; all 46 patients): 22% | grade 3/4 leukopenia/WBC decreased ([1]; all 46 patients): 15% and 16% | grade 3/4 lymphopenia ([1]; all 46 patients): 8.6% | grade 3/4 neutropenia/neutrophil count decreased ([1]; all 46 patients): 29% | grade 3/4 thrombocytopenia ([1]; all 46 patients): 39% and 40% | hypersensitivity leading to study drug discontinuation ([1]; all 46 patients): 2% | incidence of all other TEAEs ([1]; all 46 patients): < 20% | incidence of nausea ([1]; all 46 patients): 29% | infusion-site phlebitis events ([1]; all 46 patients): 2% | neutropenia leading to study drug discontinuation ([1]; all 46 patients): 4% | patients who discontinued study drug because of a TEAE ([1]; all 46 patients): 23% | patients with a grade 3 or 4 TEAE ([1]; all 46 patients): 63% | patients with at least 1 grade 3 TEAE ([1]; all 46 patients): 60% | patients with at least 1 grade 4 TEAE ([1]; all 46 patients): 28% | patients with at least 1 serious adverse event (SAE) ([1]; all 46 patients): 18% | patients with at least one TEAE ([1]; all 46 patients): 91% | patients with at least one study drug-related TEAE ([1]; all 46 patients): 38 patients | pleural effusion leading to study drug discontinuation ([1]; all 46 patients): 2% | pruritus leading to study drug discontinuation ([1]; all 46 patients): 2% | thrombocytopenia leading to study drug discontinuation ([1]; all 46 patients): 15% | incidence of anaemia ([1]; all 46 patients, any grade): 39% | incidence of leukopenia/WBC decreased ([1]; all 46 patients, any grade): 21% and 22% | incidence of neutropenia/neutrophil count decreased ([1]; all 46 patients, any grade): 29% and 28% | incidence of thrombocytopenia/platelet count decreased ([1]; all 46 patients, any grade): 52% | SAE thrombocytopenia ([1]; all 46 patients, grade 3, HM120/60 cohort): 2% | incidence of anaemia [1, 3]: 37% | incidence of thrombocytopenia [1, 3]: 47% | thrombocytopenia leading to study drug and/or study discontinuation ([1]; all patients): 19% | Blood alkaline phosphatase increased [1, 4]: 1 (2.1) n (%) | Blood magnesium decreased [1, 4]: 1 (2.1) n (%) | Blood potassium decreased/hypokalaemia [1, 4]: 5 (10.8) n (%) | C-reactive protein increased [1, 4]: 2 (4.3) n (%) | Hyperglycaemia [1, 4]: 1 (2.1) n (%) | Hyperuricemia [1, 4]: 1 (2.1) n (%) | blood creatinine increased [1, 4]: 4 (8.6) n (%) | C-reactive protein increased [1, 5]: 4% | blood creatinine increased [1, 5]: 9% | blood potassium decreased/hypokalemia [1, 5]: 11% | grade 3 hyperuricemia ([1]; considered unrelated to study drug): 2% | DLTs that occurred ([1]; dose cohort of 120/60): Grade 4 thrombocytopenia lasting for 7 days or more; also recorded: Prolonged thrombocytopenia/toxicity resulting in the delay of the next dose administration | incidence of grade 3 or 4 anaemia ([1]; doses of 20 to 80 mg/m^2): 8% | incidence of anaemia [1, 6]: 25% | incidence of grade 3/4 thrombocytopenia [1, 6]: 8% | incidence of leukopenia [1, 6]: 17% | incidence of neutropenia [1, 6]: 25% | incidence of grade 3 or 4 anaemia ([1]; doses of 100 or 120 mg/m^2): 36% | incidence of anaemia [1, 7]: 64% | incidence of grade 3/4 thrombocytopenia [1, 7]: 71% | incidence of leukopenia [1, 7]: 36% | incidence of neutropenia [1, 7]: 50% | haematological nadir occurs ([1]; human, in vivo, intravenous): 17-23 day | patients who discontinued study drug and/or the study because of neutropenia ([1]; in vivo): Two | patients who discontinued study drug or the study because of leukopenia ([1]; in vivo): No patient | patients with treatment-emergent QTcF interval >500 msec ([1]; in vivo): One | treatment-emergent ECG abnormality indicated to be clinically significant ([1]; in vivo): No patient | MTD ([1]; lymphoma and multiple myeloma patients): 100 mg/m^2 | MTD ([1]; lymphoma subpopulation): 100 mg/m^2 | MAD ([1]; lymphoma subpopulation, administered over 1 hour): 120 mg/m^2 | patients experiencing DLTs ([1]; lymphoma, 120 mg/m^2 over 1 hour): Two out of six | QTcF interval ([1]; one subject, MM 80/45 cohort, discontinuation visit three weeks after only dose, screening 423 msec): 677 ms | incidence of cardiac disorders ([1]; overall): 11% | study drug-related cardiac disorder, grade 1 palpitations ([1]; overall): 2% | tachycardia ([1]; overall): 4% | treatment-emergent grade 4 clinical chemistry abnormality, hyperuricemia [1, 8]: 2% | treatment-emergent shift to grade 3 aspartate aminotransferase increased [1, 8]: 2% | treatment-emergent shift to grade 3 hypoalbuminemia [1, 8]: 2% | incidence of neutropenia ([1]; shorter infusion times): 16% | CBR (patients with MM): 42% | ORR (patients with MM): 11% | best response CR (patients with MM): 0 patients | best response PR (patients with MM): 11% | best response SD (patients with MM): 31% | best response of PD (patients with MM): 47% | best response complete response (CR) [2]: 7% | best response of PD [2]: 41% | best response partial response (PR) [2]: 21% | clinical benefit rate (CBR) [2]: 45% | overall response rate (ORR) [2]: 28%
